Measurements reported in ChEMBL document CHEMBL1201862, “PubChem BioAssay data set” (2004).
Calls of active or inactive are those of the source.

Key:
[1] = A Cell Based Secondary Assay To Explore Cytotoxicity of Compounds that Sensitize Mycobacterium Tuberculosis to Beta-Lactam Antibiotics.; type: functional
[2] = cytotoxicity in HEK-293T cells, dose response, cytotoxicity control for TCR NF-kB inhibitor project, luminescence, T-cell screen hits (AID 489026); type: functional, cell-based;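 note: cells exposed to compound about 14 hours before the viability readout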
[3] = A cytotoxicity screen of small molecule inhibitors of the PhoP region in Salmonella typhi identified in the primary screen. [Related pubchem assays: 1850, 1864, 1985 ]; type: functional
[4] = molecular target: Nonstructural protein 1 (Influenza A virus, UniProt Q194T2); type: functional, Influenza A virus (A/California/07/2009(H1N1))
[5] = molecular target: T1, Polyadenylate-binding protein 1 (Homo sapiens, UniProt P11940); test: PABP1 MLLE–PAM2 interaction inhibitors, dose response, miRNA deadenylation inhibitor project, biochemical, fluorescence polarization, Cy5-PAM2 peptide, secondary (AID 602260); type: functional; conditions: read-out: IC50_Mean
[6] = molecular target: T1, Polyadenylate-binding protein 1; test: PABP1 MLLE–PAM2 binding inhibitor potency, dose response, biochemical, fluorescence polarization, FITC-PAM2 peptide (AID 602259); type: functional; conditions: read-out: IC50_Mean
[7] = molecular target: T2, Protein skinhead-1 (Caenorhabditis elegans, UniProt P34707); type: functional
T2 sequence (P34707 whole entry): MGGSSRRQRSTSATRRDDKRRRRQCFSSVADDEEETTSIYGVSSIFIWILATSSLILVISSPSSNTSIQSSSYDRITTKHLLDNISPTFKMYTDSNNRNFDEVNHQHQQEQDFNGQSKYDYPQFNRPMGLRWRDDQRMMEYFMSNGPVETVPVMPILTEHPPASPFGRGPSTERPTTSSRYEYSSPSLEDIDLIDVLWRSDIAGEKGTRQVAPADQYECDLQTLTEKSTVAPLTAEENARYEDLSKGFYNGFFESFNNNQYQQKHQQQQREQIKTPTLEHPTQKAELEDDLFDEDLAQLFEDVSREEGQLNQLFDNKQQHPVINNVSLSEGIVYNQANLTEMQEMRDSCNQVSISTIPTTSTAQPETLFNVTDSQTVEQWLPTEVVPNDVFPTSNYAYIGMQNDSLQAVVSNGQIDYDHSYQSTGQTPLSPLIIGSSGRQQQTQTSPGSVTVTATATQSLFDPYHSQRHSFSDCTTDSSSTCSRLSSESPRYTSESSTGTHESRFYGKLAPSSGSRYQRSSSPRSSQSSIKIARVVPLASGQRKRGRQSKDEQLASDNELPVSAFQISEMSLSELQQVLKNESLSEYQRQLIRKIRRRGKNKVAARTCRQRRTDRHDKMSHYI

[8] = molecular target: Cytochrome P450 2C9 (Homo sapiens, UniProt P11712)
Sequence of Cytochrome P450 2C9 (P11712 whole entry): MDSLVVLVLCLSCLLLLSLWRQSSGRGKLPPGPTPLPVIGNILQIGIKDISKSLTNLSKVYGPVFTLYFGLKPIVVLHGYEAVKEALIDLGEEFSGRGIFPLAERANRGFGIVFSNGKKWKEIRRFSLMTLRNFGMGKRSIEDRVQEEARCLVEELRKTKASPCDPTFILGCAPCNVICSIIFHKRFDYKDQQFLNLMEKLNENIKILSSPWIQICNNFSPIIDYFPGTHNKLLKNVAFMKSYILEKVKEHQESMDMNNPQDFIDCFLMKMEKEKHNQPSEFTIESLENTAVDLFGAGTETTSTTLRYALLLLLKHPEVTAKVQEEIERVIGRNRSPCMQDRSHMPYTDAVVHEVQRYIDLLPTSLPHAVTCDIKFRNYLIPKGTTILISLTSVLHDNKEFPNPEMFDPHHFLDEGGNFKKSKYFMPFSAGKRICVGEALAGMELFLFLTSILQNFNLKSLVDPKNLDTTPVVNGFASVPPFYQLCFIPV

T1 sequence (P11940 whole entry): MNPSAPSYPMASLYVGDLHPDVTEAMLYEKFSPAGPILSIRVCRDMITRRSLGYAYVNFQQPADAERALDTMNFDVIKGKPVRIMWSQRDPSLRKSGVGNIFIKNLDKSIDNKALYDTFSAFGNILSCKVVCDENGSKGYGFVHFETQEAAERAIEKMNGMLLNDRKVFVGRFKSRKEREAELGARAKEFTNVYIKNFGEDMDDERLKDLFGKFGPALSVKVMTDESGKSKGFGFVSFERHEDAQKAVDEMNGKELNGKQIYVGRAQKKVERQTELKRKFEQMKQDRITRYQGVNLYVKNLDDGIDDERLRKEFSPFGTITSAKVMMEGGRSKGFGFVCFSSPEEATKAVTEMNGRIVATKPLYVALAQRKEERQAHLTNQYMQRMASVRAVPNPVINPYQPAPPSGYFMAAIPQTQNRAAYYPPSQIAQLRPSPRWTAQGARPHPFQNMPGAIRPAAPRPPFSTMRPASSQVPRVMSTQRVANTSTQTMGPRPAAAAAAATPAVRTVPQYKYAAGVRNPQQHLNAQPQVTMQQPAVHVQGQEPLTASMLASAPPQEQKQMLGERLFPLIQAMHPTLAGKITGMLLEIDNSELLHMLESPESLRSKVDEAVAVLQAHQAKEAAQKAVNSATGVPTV
Sequence of Nonstructural protein 1 (Q194T2 whole entry): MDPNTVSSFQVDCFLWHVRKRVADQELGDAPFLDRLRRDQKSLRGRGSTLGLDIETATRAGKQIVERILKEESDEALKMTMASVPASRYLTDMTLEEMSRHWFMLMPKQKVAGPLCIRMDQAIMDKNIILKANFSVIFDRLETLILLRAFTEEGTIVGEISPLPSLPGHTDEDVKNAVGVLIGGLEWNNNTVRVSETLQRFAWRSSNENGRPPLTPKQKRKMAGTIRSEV

CCOc1cccc(/C=N/Nc2nc(N3CCCC3)nc(N3CCCC3)n2)c1O
CC50 [1]: > 40 µM (active)

COc1ccc(CNS(=O)(=O)c2cc(-c3cc(C)no3)ccc2C(C)C)cc1
IC50 [2]: > 80 µM (inactive)

COc1cccc(C(=O)Nc2cccc(SC)c2)c1
EC50 [3]: > 50 µM (active)

COc1ccc2nc(SCC(=O)N3CCCCCC3)c(C#N)cc2c1
CC50 [1]: > 40 µM (active)

CCOc1cc(C(c2c(C)n[nH]c2O)c2c(C)n[nH]c2O)cc([N+](=O)[O-])c1O
EC50 [3]: > 50 µM (active)

O=C(O)Cn1c(=O)c2c3c(sc2n(Cc2ccccc2F)c1=O)CCCC3
EC50 [3]: > 50 µM (active)

O=C(/C=C/c1cccnc1)c1ccc(O)cc1
CC50 [1]: 17.5 µM (active)

Cc1cc2cc(CN=C(S)Nc3ccc(OC(F)(F)F)cc3)ccc2n1C
IC50 [4]: > 100 µM (active) | IC50 [5]: > 66 µM (inactive) | IC50 [6]: > 66 µM (inactive) | IC50 [7]: > 100 µM (inactive)

Cc1ccc(Cn2c(C(C)Nc3nc(-c4ccc(Cl)cc4)cs3)nc3cc(C(=O)NCCCO)ccc32)cc1 (centres undefined)
CC50 [1]: > 40 µM (active)

Cc1ccc(CNC(=O)C2CC(c3ccccc3[N+](=O)[O-])=NO2)cc1 (centres undefined)
AC50 [8]: inconclusive

COc1ccccc1CNCCc1ccc(F)cc1
EC50 [3]: > 50 µM (active)
